Laboratory results from ChEMBL document CHEMBL1201862, “PubChem BioAssay data set” (2004).
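Briefly, cells in 96-well plates were exposed to five compound concentrations for 48 h, and endpoints were estimated by linear interpolation. At the GI50, growth is halved.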 Active and inactive are the calls of the source. Rule as the data show it: active = GI50 up to about 1.1 µM and inactive = higher.

How the values were obtained:
Assay in all cases: growth of human tumour cells (NCI), 48 h
SK-OV-3 = system: SK-OV-3
K562 = system: K562
BT-549 = system: BT-549
IGROV-1 = system: IGROV-1
COLO 205 = system: COLO 205
MDA-MB-435 = system: MDA-MB-435
786-0 = system: 786-0
NCI/ADR-RES = system: NCI/ADR-RES
OVCAR-4 = system: OVCAR-4
UACC-257 = system: UACC-257
HT-29 = system: HT-29
OVCAR-8 = system: OVCAR-8
KM12 = system: KM12
SF-295 = system: SF-295
HCC 2998 = system: HCC 2998
CAKI-1 = system: CAKI-1
PC-3 = system: PC-3
RXF 631 = system: RXF 631
HCT-116 = system: HCT-116
HL-60 = system: HL-60
RXF 393 = system: RXF 393
CCRF-CEM = system: CCRF-CEM
DLD-1 = system: DLD-1
SR = system: SR
RPMI-8226 = system: RPMI-8226
MCF7 = system: MCF7
XF498 = system: XF498
SK-MEL-2 = system: SK-MEL-2
SNB-19 = system: SNB-19
T47D = system: T47D
LOX IMVI = system: LOX IMVI
UO-31 = system: UO-31
DMS-114 = system: DMS-114
ACHN = system: ACHN
KM-20L2 = system: KM-20L2
HOP-92 = system: HOP-92
SF-268 = system: SF-268
A549 = system: A549
OVCAR-3 = system: OVCAR-3
MOLT-4 = system: MOLT-4
MDA-MB-231 = system: MDA-MB-231
SN12C = system: SN12C
NCI-H460 = system: NCI-H460
DMS-273 = system: DMS-273
SK-MEL-5 = system: SK-MEL-5
DU-145 = system: DU-145
U-251 = system: U-251
Malme-3M = system: Malme-3M
M14 = system: M14
MDA-N = system: MDA-N
SNB-75 = system: SNB-75
HCT-15 = system: HCT-15
SNB-78 = system: SNB-78
OVCAR-5 = system: OVCAR-5
TK-10 = system: TK-10
SW-620 = system: SW-620
SF-539 = system: SF-539
HOP-18 = system: HOP-18
HOP-62 = system: HOP-62
NCI-H522 = system: NCI-H522
Hs-578T = system: Hs-578T
M19-MEL = system: M19-MEL
A498 = system: A498
LXFL 529 = system: LXFL 529
SK-MEL-28 = system: SK-MEL-28
NCI-H226 = system: NCI-H226
UACC-62 = system: UACC-62
EKVX = system: EKVX
NCI-H23 = system: NCI-H23

CCOC(=O)CN1C(=O)c2cc([N+](=O)[O-])cc3cc([N+](=O)[O-])cc(c23)C1=O
GI50 (SK-OV-3): > 95.7 µM (inactive)
GI50 (K562): 5.13 µM (inactive)
GI50 (BT-549): > 28.6 µM (inactive)
GI50 (IGROV-1): > 66.1 µM (inactive)
GI50 (COLO 205): 24.7 µM (inactive)
GI50 (MDA-MB-435): 13.8 µM (inactive)
GI50 (786-0): 48.8 µM (inactive)
GI50 (NCI/ADR-RES): > 80.4 µM (inactive)
GI50 (OVCAR-4): > 100 µM (inactive)
GI50 (UACC-257): 73.8 µM (inactive)
GI50 (HT-29): 34.7 µM (inactive)
GI50 (OVCAR-8): 27.9 µM (inactive)
GI50 (KM12): > 100 µM (inactive)
GI50 (SF-295): 72.3 µM (inactive)
GI50 (HCC 2998): > 100 µM (inactive)
GI50 (CAKI-1): 30.5 µM (inactive)
GI50 (PC-3): > 100 µM (inactive)
GI50 (RXF 631): 50.7 µM (inactive)
GI50 (HCT-116): 15 µM (inactive)
GI50 (HL-60): 1.71 µM (inactive)
GI50 (RXF 393): 11.9 µM (inactive)
GI50 (CCRF-CEM): 1.41 µM (inactive)
GI50 (DLD-1): 5.86 µM (inactive)
GI50 (SR): 1.45 µM (inactive)
GI50 (RPMI-8226): 19.6 µM (inactive)
GI50 (MCF7): > 84.7 µM (inactive)
GI50 (XF498): > 100 µM (inactive)
GI50 (SK-MEL-2): 22.5 µM (inactive)
GI50 (SNB-19): > 83.4 µM (inactive)
GI50 (T47D): > 100 µM (inactive)
GI50 (LOX IMVI): 4.1 µM (inactive)
GI50 (UO-31): 28.7 µM (inactive)
GI50 (DMS-114): 57.7 µM (inactive)
GI50 (ACHN): 40 µM (inactive)
GI50 (KM-20L2): 50.8 µM (inactive)
GI50 (HOP-92): > 77.8 µM (inactive)
GI50 (SF-268): 18.4 µM (inactive)
GI50 (A549): > 100 µM (inactive)
GI50 (OVCAR-3): 23.2 µM (inactive)
GI50 (MOLT-4): 3.56 µM (inactive)
GI50 (MDA-MB-231): 45.4 µM (inactive)
GI50 (SN12C): 14.7 µM (inactive)
GI50 (NCI-H460): 73.6 µM (inactive)
GI50 (DMS-273): > 100 µM (inactive)
GI50 (SK-MEL-5): 27.3 µM (inactive)
GI50 (DU-145): > 25.3 µM (inactive)
GI50 (U-251): > 88.5 µM (inactive)
GI50 (Malme-3M): 43.5 µM (inactive)
GI50 (M14): 24.7 µM (inactive)
GI50 (MDA-N): 11 µM (inactive)
GI50 (SNB-75): 84.3 µM (inactive)
GI50 (HCT-15): 17.3 µM
GI50 (SNB-78): 4.2 µM (inactive)
GI50 (OVCAR-5): > 100 µM (inactive)
GI50 (TK-10): > 100 µM (inactive)
GI50 (SW-620): 68.5 µM (inactive)
GI50 (SF-539): 20 µM (inactive)
GI50 (HOP-18): > 100 µM (inactive)
GI50 (HOP-62): > 100 µM (inactive)
GI50 (NCI-H522): 4.21 µM (inactive)
GI50 (Hs-578T): > 100 µM (inactive)
GI50 (M19-MEL): 30.1 µM (inactive)
GI50 (A498): > 100 µM (inactive)
GI50 (LXFL 529): 12.3 µM (inactive)
GI50 (SK-MEL-28): 49.3 µM (inactive)
GI50 (NCI-H226): 45.4 µM (inactive)
GI50 (UACC-62): 22.8 µM (inactive)
GI50 (EKVX): > 100 µM (inactive)
GI50 (NCI-H23): 99.3 µM (inactive)

C#CCOCn1cnc2c(Cl)ncnc21
GI50 (SK-OV-3): > 100 µM (inactive)
GI50 (K562): 59.6 µM (inactive)
GI50 (IGROV-1): > 100 µM (inactive)
GI50 (COLO 205): > 100 µM (inactive)
GI50 (786-0): > 100 µM (inactive)
GI50 (OVCAR-4): > 100 µM (inactive)
GI50 (UACC-257): > 100 µM (inactive)
GI50 (HT-29): > 100 µM (inactive)
GI50 (OVCAR-8): > 100 µM (inactive)
GI50 (KM12): > 100 µM (inactive)
GI50 (SF-295): > 100 µM (inactive)
GI50 (HCC 2998): > 100 µM (inactive)
GI50 (CAKI-1): > 100 µM (inactive)
GI50 (RXF 631): > 100 µM (inactive)
GI50 (HCT-116): > 100 µM (inactive)
GI50 (CCRF-CEM): > 100 µM (inactive)
GI50 (DLD-1): > 100 µM (inactive)
GI50 (SR): 50.9 µM (inactive)
GI50 (RPMI-8226): > 100 µM (inactive)
GI50 (XF498): > 100 µM (inactive)
GI50 (SK-MEL-2): > 100 µM (inactive)
GI50 (SNB-19): > 100 µM (inactive)
GI50 (LOX IMVI): 52.6 µM (inactive)
GI50 (UO-31): > 100 µM (inactive)
GI50 (DMS-114): 41.4 µM (inactive)
GI50 (ACHN): > 100 µM (inactive)
GI50 (HOP-92): > 100 µM (inactive)
GI50 (SF-268): > 100 µM (inactive)
GI50 (A549): > 100 µM (inactive)
GI50 (OVCAR-3): > 100 µM (inactive)
GI50 (MOLT-4): 67.5 µM (inactive)
GI50 (SN12C): > 100 µM (inactive)
GI50 (NCI-H460): > 100 µM (inactive)
GI50 (DMS-273): > 100 µM (inactive)
GI50 (SK-MEL-5): > 100 µM (inactive)
GI50 (U-251): > 100 µM (inactive)
GI50 (Malme-3M): > 100 µM (inactive)
GI50 (M14): > 100 µM (inactive)
GI50 (SNB-75): > 100 µM (inactive)
GI50 (SNB-78): > 100 µM (inactive)
GI50 (OVCAR-5): > 100 µM (inactive)
GI50 (TK-10): > 100 µM (inactive)
GI50 (SW-620): > 100 µM (inactive)
GI50 (SF-539): > 100 µM (inactive)
GI50 (HOP-18): > 100 µM (inactive)
GI50 (HOP-62): > 100 µM (inactive)
GI50 (NCI-H522): 86.1 µM (inactive)
GI50 (M19-MEL): > 100 µM (inactive)
GI50 (A498): > 100 µM (inactive)
GI50 (LXFL 529): > 100 µM (inactive)
GI50 (SK-MEL-28): > 100 µM (inactive)
GI50 (NCI-H226): > 100 µM (inactive)
GI50 (UACC-62): > 100 µM (inactive)
GI50 (EKVX): > 100 µM (inactive)
GI50 (NCI-H23): > 100 µM (inactive)
